Here are results for 43 compounds from patent US12581252B2, “Substituted pyrrolo[3,4-b]pyridines as PI3K-α inhibitors” (Relay Therapeutics, Inc., priority 2020, dated 2026).

Sequence of H1047R PIK3CA enzyme (P42336 whole entry H1047R): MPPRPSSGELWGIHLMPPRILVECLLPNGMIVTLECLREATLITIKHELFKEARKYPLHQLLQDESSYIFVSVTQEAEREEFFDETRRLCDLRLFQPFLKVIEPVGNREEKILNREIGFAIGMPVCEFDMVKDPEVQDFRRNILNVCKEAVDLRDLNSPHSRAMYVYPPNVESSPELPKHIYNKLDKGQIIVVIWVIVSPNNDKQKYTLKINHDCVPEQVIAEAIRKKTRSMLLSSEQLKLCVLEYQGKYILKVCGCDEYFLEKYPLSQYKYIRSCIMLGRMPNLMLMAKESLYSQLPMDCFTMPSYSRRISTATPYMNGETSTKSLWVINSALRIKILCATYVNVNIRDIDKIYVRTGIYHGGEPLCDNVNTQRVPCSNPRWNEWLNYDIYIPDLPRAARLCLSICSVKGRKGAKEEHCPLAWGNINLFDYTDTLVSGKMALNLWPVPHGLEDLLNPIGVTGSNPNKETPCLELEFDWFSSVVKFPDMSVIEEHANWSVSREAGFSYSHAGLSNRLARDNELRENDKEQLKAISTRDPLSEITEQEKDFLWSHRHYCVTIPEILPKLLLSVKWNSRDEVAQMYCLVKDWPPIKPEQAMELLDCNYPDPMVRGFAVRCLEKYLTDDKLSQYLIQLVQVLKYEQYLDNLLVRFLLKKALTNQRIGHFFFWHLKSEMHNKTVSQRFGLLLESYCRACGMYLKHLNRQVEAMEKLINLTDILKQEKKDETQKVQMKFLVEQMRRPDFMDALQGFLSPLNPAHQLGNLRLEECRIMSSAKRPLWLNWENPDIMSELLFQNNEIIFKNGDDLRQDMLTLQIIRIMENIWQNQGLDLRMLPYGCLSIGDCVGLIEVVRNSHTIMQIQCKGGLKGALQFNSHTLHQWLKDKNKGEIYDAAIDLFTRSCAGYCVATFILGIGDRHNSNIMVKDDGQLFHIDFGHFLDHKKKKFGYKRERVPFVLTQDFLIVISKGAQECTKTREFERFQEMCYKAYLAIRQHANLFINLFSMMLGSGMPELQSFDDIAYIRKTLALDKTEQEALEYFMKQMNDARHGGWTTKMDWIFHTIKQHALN
Sequence of H1047R PIK3CA enzyme (P27986 whole entry partner): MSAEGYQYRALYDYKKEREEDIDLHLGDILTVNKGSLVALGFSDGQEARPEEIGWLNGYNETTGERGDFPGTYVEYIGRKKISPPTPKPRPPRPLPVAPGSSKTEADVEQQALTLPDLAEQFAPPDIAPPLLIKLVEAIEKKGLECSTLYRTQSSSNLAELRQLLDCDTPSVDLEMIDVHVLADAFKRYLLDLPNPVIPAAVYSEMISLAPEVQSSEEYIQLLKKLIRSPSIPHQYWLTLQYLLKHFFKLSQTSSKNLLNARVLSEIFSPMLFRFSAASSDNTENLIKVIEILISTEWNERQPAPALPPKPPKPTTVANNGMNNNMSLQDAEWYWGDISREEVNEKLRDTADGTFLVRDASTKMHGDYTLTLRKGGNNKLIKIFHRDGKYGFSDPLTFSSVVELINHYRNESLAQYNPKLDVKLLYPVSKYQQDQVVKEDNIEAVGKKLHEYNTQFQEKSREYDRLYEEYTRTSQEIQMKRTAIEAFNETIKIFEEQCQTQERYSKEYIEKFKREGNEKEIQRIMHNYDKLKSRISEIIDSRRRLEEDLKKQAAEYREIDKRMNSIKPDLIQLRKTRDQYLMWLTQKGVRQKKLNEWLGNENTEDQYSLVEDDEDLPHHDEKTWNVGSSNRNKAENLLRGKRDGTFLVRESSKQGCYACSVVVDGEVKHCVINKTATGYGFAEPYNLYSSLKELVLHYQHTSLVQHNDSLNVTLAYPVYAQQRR

This assay has as its target H1047R PIK3CA enzyme (Homo sapiens, UniProt P42336, H1047R). The experiment in a line: ADP-Glo Biochemical PIK3CA Kinase Assay. (In general: ADP-Glo turns the ADP formed in a reaction into a luminescent signal.)
What is called IC50 is the concentration that gives 50% inhibition. In turn, `O=C1NC(c2cc(F)ccc2Cl)c2c(NC(=O)C3(O)CCCC3)cc(-c3ccc4ncnn4c3)cc21` (stereo not shown) [Compound I-1813] returned a half-maximal inhibitory concentration (IC50) of 10 to 100 µM.
For `O=C1NC(c2cc(F)ccc2Cl)c2c(NC(=O)C3CCCOC3)cc(-c3ccc4ncnn4c3)cc21` (stereo not shown) [Compound I-1814] the value was 10 to 100 µM; for `CN1CCC(C2NC(=O)c3cccc(NC(=O)c4cc(F)cc(C(F)(F)F)c4)c32)CC1` (stereo not shown) [Compound I-1815], 10 to 100 µM.
On to `CC(=O)N1CCC(C2NC(=O)c3cccc(NC(=O)c4cc(F)cc(C(F)(F)F)c4)c32)CC1` (stereo not shown) [Compound I-1818], for which the concentration for half-maximal inhibition (IC50) lay within 10 to 100 µM.
`O=C1NC(c2cc(F)ccc2Cl)c2c(NC(=O)C3(c4cc(F)ccc4F)CCCC3)cc(Br)cc21` (stereo not shown) [Compound I-1819] showed an IC50 of 10 to 100 µM.
For `O=C(Nc1cccc2c1C(C1CCCCC1O)NC2=O)c1cc(F)cc(C(F)(F)F)c1` (stereo not shown) [Compound I-1820] the value was 10 to 100 µM.
For `O=C1NC(c2cc(F)ccc2Cl)c2c(NC(=O)C3CCOCC3)cc(-c3ccc4ncnn4c3)cc21` (stereo not shown) [Compound I-1821] the value was 10 to 100 µM; for `N#Cc1cc(-c2cc(NC(=O)c3cc(F)cc(C(F)(F)F)c3)c3c(c2)C(=O)NC3c2cc(F)ccc2Cl)cn2ncnc12` (stereo not shown) [Compound I-1822], no more than 0.1 µM.
With `O=C(Nc1cc(-c2cn(C(F)F)cn2)cc2c1C(c1cc(F)ccc1Cl)NC2=O)c1cc(F)cc(C(F)(F)F)c1` (stereo not shown) [Compound I-1823] the figure was no more than 0.1 µM.
`O=C(Nc1cc(-c2cnn3ncnc3c2)cc2c1C(c1cc(F)ccc1Cl)NC2=O)c1cc(F)cc(C(F)(F)F)c1` (stereo not shown) [Compound I-1824] gave an IC50 of no more than 0.1 µM.
`Cc1c(-c2cc(NC(=O)c3cc(F)cc(C(F)(F)F)c3)c3c(c2)C(=O)NC3c2cc(F)ccc2Cl)ccc2ncnn12` (stereo not shown) [Compound I-1825] returned a half-inhibitory concentration (IC50) of no more than 0.1 µM.
With `N#Cc1nn(C(F)F)cc1-c1cc(NC(=O)c2cc(F)cc(C(F)(F)F)c2)c2c(c1)C(=O)NC2c1cc(F)ccc1Cl` (stereo not shown) [Compound I-1826] the figure was no more than 0.1 µM; with `Cc1cc2ncnn2cc1-c1cc(NC(=O)c2cc(F)cc(C(F)(F)F)c2)c2c(c1)C(=O)NC2c1cc(F)ccc1Cl` (stereo not shown) [Compound I-1827], no more than 0.1 µM; with `O=C(Nc1cc(-c2cc3ncnn3cc2F)cc2c1C(c1cc(F)ccc1Cl)NC2=O)c1cc(F)cc(C(F)(F)F)c1` (stereo not shown) [Compound I-1828], no more than 0.1 µM.
For `O=C1NC(c2cc(F)ccc2Cl)c2c(NC(=O)C3CCCO3)cc(-c3ccc4ncnn4c3)cc21` (stereo not shown) [Compound I-1831] the value was 10 to 100 µM.
Take `O=C(Nc1cccc2c1C(C1CNC1)NC2=O)c1cc(F)cc(C(F)(F)F)c1` (stereo not shown) [Compound I-1833]: the IC50 lay in the range of 10 to 100 µM.
In turn, `N#CC(C(=O)Nc1cc(-c2ccc3ncnn3c2)cc2c1C(c1cc(F)ccc1Cl)NC2=O)c1ccccc1` (stereo not shown) [Compound I-1834] showed an IC50 of 1 to 10 µM.
With `O=C(Nc1cccc2c1C(C1CCC(O)CC1)NC2=O)c1cc(F)cc(C(F)(F)F)c1` (stereo not shown) [Compound I-1835] the figure was 10 to 100 µM.
For `CC(C#N)n1cc(-c2cc(NC(=O)c3cc(F)cc(C(F)(F)F)c3)c3c(c2)C(=O)NC3c2cc(F)ccc2Cl)cn1` (stereo not shown) [Compound I-1837] the value was no more than 0.1 µM; for `N#Cc1cnc2cc(F)c(-c3cc(NC(=O)c4cc(F)cc(C(F)(F)F)c4)c4c(c3)C(=O)NC4c3cc(F)ccc3Cl)cn12` (stereo not shown) [Compound I-1838], no more than 0.1 µM; for `Cn1nc(C(F)F)cc1-c1cc(NC(=O)c2cc(F)cc(C(F)(F)F)c2)c2c(c1)C(=O)NC2c1cc(F)ccc1Cl` (stereo not shown) [Compound I-1839], no more than 0.1 µM.
Turning to `O=C(Nc1cc(-c2ccc3nnc(C(F)F)n3c2)cc2c1C(c1cc(F)ccc1Cl)NC2=O)c1cc(F)cc(C(F)(F)F)c1` (stereo not shown) [Compound I-1840], the IC50 is no more than 0.1 µM.
For `Cn1nc2ccccc2c1Nc1cc(-c2ccc3ncnn3c2)cc2c1C(c1cc(F)ccc1Cl)NC2=O` (stereo not shown) [Compound I-1841] the value was 10 to 100 µM; for `CNC(=O)c1cc(-c2ccc3ncnn3c2)cc2c1C(c1cc(F)ccc1Cl)NC2=O` (stereo not shown) [Compound I-1846], 10 to 100 µM; for `O=C1NC(c2cc(F)ccc2Cl)c2c(CO)cc(-c3ccc4ncnn4c3)cc21` (stereo not shown) [Compound I-1851], 10 to 100 µM.
With `O=C1NC(c2cc(F)ccc2Cl)c2c(NC3CCc4ccccc43)cc(Br)cc21` (stereo not shown) [Compound I-1852] the figure was 10 to 100 µM; with `N#Cc1cnc2c(F)cc(-c3cc(NC(=O)c4cc(F)cc(C(F)(F)F)c4)c4c(c3)C(=O)N[C@@H]4c3cc(F)ccc3Cl)cn12` [Compound I-1855], 0.5 to 1 µM.
With `N#Cc1cnc2c(F)cc(-c3cc(NC(=O)c4cc(F)cc(C(F)(F)F)c4)c4c(c3)C(=O)N[C@H]4c3cc(F)ccc3Cl)cn12` [Compound I-1856] the figure was no more than 0.1 µM; with `CN(C)C(=O)c1cc(-c2ccc3ncnn3c2)cc2c1C(c1cc(F)ccc1Cl)NC2=O` (stereo not shown) [Compound I-1857], 10 to 100 µM; with `N#Cc1cnc2ncc(-c3cc(NC(=O)c4cc(F)cc(C(F)(F)F)c4)c4c(c3)C(=O)N[C@@H]4c3cc(F)ccc3Cl)cn12` [Compound I-1858], 0.5 to 1 µM.
`N#Cc1cnc2ncc(-c3cc(NC(=O)c4cc(F)cc(C(F)(F)F)c4)c4c(c3)C(=O)N[C@H]4c3cc(F)ccc3Cl)cn12` [Compound I-1859] displayed a half-inhibitory concentration (IC50) of no more than 0.1 µM.
With `O=C(Nc1cc(-c2ccc(=O)n(C(F)F)c2)cc2c1[C@@H](c1cc(F)ccc1Cl)NC2=O)c1cc(F)cc(C(F)(F)F)c1` [Compound I-1860] the figure was 1 to 10 µM.
For `O=C(Nc1cc(-c2ccc(=O)n(C(F)F)c2)cc2c1[C@H](c1cc(F)ccc1Cl)NC2=O)c1cc(F)cc(C(F)(F)F)c1` [Compound I-1861] the value was no more than 0.1 µM; for `N#Cc1c(-c2cc(NC(=O)c3cc(F)cc(C(F)(F)F)c3)c3c(c2)C(=O)NC3c2cc(F)ccc2Cl)cnn1C(F)F` (stereo not shown) [Compound I-1862], no more than 0.1 µM; for `O=C(Nc1cc(-c2cnn(C(F)F)c2)cc2c1C(c1cc(F)ccc1Cl)NC2=O)c1cc(F)cc(Cl)c1` (stereo not shown) [Compound I-1863], no more than 0.1 µM.
With `O=C(Nc1cc(-c2ccc3nc(C(F)F)cn3c2)cc2c1C(c1cc(F)ccc1Cl)NC2=O)c1cc(F)cc(C(F)(F)F)c1` (stereo not shown) [Compound I-1864], the IC50 is no more than 0.1 µM.
With `Cn1nc(C(F)(F)F)cc1-c1cc(NC(=O)c2cc(F)cc(C(F)(F)F)c2)c2c(c1)C(=O)NC2c1cc(F)ccc1Cl` (stereo not shown) [Compound I-1865] the figure was no more than 0.1 µM.
With `O=C(Nc1cc(-c2ccc3ncc(C(F)F)n3c2)cc2c1C(c1cc(F)ccc1Cl)NC2=O)c1cc(F)cc(C(F)(F)F)c1` (stereo not shown) [Compound I-1866] the figure was no more than 0.1 µM; with `O=C(Nc1cc(-c2cc3ncnn3cc2F)cc2c1[C@H](c1cc(F)ccc1Cl)NC2=O)c1cc(F)cc(C(F)(F)F)c1` [Compound I-1868], no more than 0.1 µM; with `O=C(Nc1cc(-c2ccc3ncc(F)n3c2)cc2c1[C@@H](c1cc(F)ccc1Cl)NC2=O)c1cc(F)cc(C(F)(F)F)c1` [Compound I-1869], 0.5 to 1 µM.
With `O=C(Nc1cc(-c2ccc3ncc(F)n3c2)cc2c1[C@H](c1cc(F)ccc1Cl)NC2=O)c1cc(F)cc(C(F)(F)F)c1` [Compound I-1870] the figure was no more than 0.1 µM; with `O=C(Nc1cc(-c2cnn3ncnc3c2)cc2c1[C@@H](c1cc(F)ccc1Cl)NC2=O)c1cc(F)cc(C(F)(F)F)c1` [Compound I-1871], 0.1 to 0.5 µM; with `O=C(Nc1cc(-c2cnn3ncnc3c2)cc2c1[C@H](c1cc(F)ccc1Cl)NC2=O)c1cc(F)cc(C(F)(F)F)c1` [Compound I-1872], no more than 0.1 µM.
